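Assay format: 96-well plates, 48-hour exposure. The concentration for 50% growth inhibition is given as GI50. TGI denotes the concentration required for complete inhibition of growth.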
Experiments:
Test in all cases: growth of human tumour cells (NCI), 48 h
SK-MEL-28 melanoma = system: SK-MEL-28 melanoma
SNB-19 CNS = system: SNB-19 CNS
T-47D breast = system: T-47D breast
HL-60(TB) leukemia = system: HL-60(TB) leukemia
SW-620 colon = system: SW-620 colon
HS 578T breast = system: HS 578T breast
KM12 colon = system: KM12 colon
OVCAR-4 ovarian = system: OVCAR-4 ovarian
SK-MEL-2 melanoma = system: SK-MEL-2 melanoma
SF-539 CNS = system: SF-539 CNS
CAKI-1 renal = system: CAKI-1 renal
HCT-15 colon = system: HCT-15 colon
SF-268 CNS = system: SF-268 CNS
IGROV1 ovarian = system: IGROV1 ovarian
SR leukemia = system: SR leukemia
NCI-H460 lung = system: NCI-H460 lung
MOLT-4 leukemia = system: MOLT-4 leukemia
UACC-62 melanoma = system: UACC-62 melanoma
UO-31 renal = system: UO-31 renal
NCI-H522 lung = system: NCI-H522 lung
NCI-H226 lung = system: NCI-H226 lung
HCT-116 colon = system: HCT-116 colon
M14 melanoma = system: M14 melanoma
K-562 leukemia = system: K-562 leukemia
PC-3 prostate = system: PC-3 prostate
A549 NSCLC = system: A549 NSCLC
ACHN renal = system: ACHN renal
RXF 393 renal = system: RXF 393 renal
A498 renal = system: A498 renal
EKVX NSCLC = system: EKVX NSCLC
HOP-92 NSCLC = system: HOP-92 NSCLC
OVCAR-8 ovarian = system: OVCAR-8 ovarian
OVCAR-3 ovarian = system: OVCAR-3 ovarian
TK-10 renal = system: TK-10 renal
OVCAR-5 ovarian = system: OVCAR-5 ovarian
SNB-75 CNS = system: SNB-75 CNS
CCRF-CEM leukemia = system: CCRF-CEM leukemia
SK-MEL-5 melanoma = system: SK-MEL-5 melanoma
SN12C renal = system: SN12C renal
BT-549 breast = system: BT-549 breast
SK-OV-3 ovarian = system: SK-OV-3 ovarian
NCI/ADR-RES ovarian = system: NCI/ADR-RES ovarian
MDA-MB-435 = system: MDA-MB-435
HCC-2998 colon = system: HCC-2998 colon
COLO 205 colon = system: COLO 205 colon
RPMI-8226 leukemia = system: RPMI-8226 leukemia
SF-295 CNS = system: SF-295 CNS
DU-145 prostate = system: DU-145 prostate
U251 CNS = system: U251 CNS
MDA-MB-231 breast = system: MDA-MB-231 breast
786-0 renal = system: 786-0 renal
MCF7 breast = system: MCF7 breast
UACC-257 melanoma = system: UACC-257 melanoma
HOP-62 NSCLC = system: HOP-62 NSCLC
HT29 colon = system: HT29 colon
LOX IMVI melanoma = system: LOX IMVI melanoma

## COc1ccc(OC)c(-c2c(C#N)c(N)nc(N3CCOCC3)c2C#N)c1
SK-MEL-28 melanoma
  GI50: 82.8 µM
  TGI: > 100 µM
SNB-19 CNS
  GI50: > 100 µM
  TGI: > 100 µM
T-47D breast
  GI50: 45.1 µM
  TGI: > 100 µM
HL-60(TB) leukemia
  GI50: > 100 µM
  TGI: > 100 µM
SW-620 colon
  GI50: > 100 µM
  TGI: > 100 µM
HS 578T breast
  GI50: 87.4 µM
  TGI: > 100 µM
KM12 colon
  GI50: > 100 µM
  TGI: > 100 µM
OVCAR-4 ovarian
  GI50: 43.6 µM
  TGI: > 100 µM
SK-MEL-2 melanoma
  GI50: > 100 µM
  TGI: > 100 µM
SF-539 CNS
  GI50: > 100 µM
  TGI: > 100 µM
CAKI-1 renal
  GI50: 43.4 µM
  TGI: 97 µM
HCT-15 colon
  GI50: > 100 µM
  TGI: > 100 µM
SF-268 CNS
  GI50: > 100 µM
  TGI: > 100 µM
IGROV1 ovarian
  GI50: 73.9 µM
  TGI: > 100 µM
SR leukemia
  GI50: 36.3 µM
  TGI: > 100 µM
NCI-H460 lung
  GI50: > 100 µM
  TGI: > 100 µM
MOLT-4 leukemia
  GI50: > 100 µM
  TGI: > 100 µM
UACC-62 melanoma
  GI50: 44.5 µM
  TGI: > 100 µM
UO-31 renal
  GI50: 46 µM
  TGI: > 100 µM
NCI-H522 lung
  GI50: 46.2 µM
  TGI: > 100 µM
NCI-H226 lung
  GI50: 85.6 µM
  TGI: > 100 µM
HCT-116 colon
  GI50: > 100 µM
  TGI: > 100 µM
M14 melanoma
  GI50: > 100 µM
  TGI: > 100 µM
K-562 leukemia
  GI50: > 100 µM
  TGI: > 100 µM
PC-3 prostate
  GI50: 95.4 µM
  TGI: > 100 µM
A549 NSCLC
  GI50: > 100 µM
  TGI: > 100 µM
ACHN renal
  GI50: 67.9 µM
  TGI: > 100 µM
RXF 393 renal
  GI50: 61.4 µM
  TGI: > 100 µM
A498 renal
  GI50: 52.6 µM
  TGI: > 100 µM
EKVX NSCLC
  GI50: > 100 µM
  TGI: > 100 µM
HOP-92 NSCLC
  GI50: 82.5 µM
  TGI: > 100 µM
OVCAR-8 ovarian
  GI50: 79.1 µM
  TGI: > 100 µM
OVCAR-3 ovarian
  GI50: 39.3 µM
  TGI: > 100 µM
TK-10 renal
  GI50: 45 µM
  TGI: > 100 µM
OVCAR-5 ovarian
  GI50: > 100 µM
  TGI: > 100 µM
SNB-75 CNS
  GI50: 12.9 µM
  TGI: 57.4 µM
CCRF-CEM leukemia
  GI50: > 100 µM
  TGI: > 100 µM
SK-MEL-5 melanoma
  GI50: > 100 µM
  TGI: > 100 µM
SN12C renal
  GI50: 73 µM
  TGI: > 100 µM
BT-549 breast
  GI50: > 100 µM
  TGI: > 100 µM
SK-OV-3 ovarian
  GI50: 11.9 µM
  TGI: > 100 µM
NCI/ADR-RES ovarian
  GI50: > 100 µM
  TGI: > 100 µM
MDA-MB-435
  GI50: > 100 µM
  TGI: > 100 µM
HCC-2998 colon
  GI50: 72.7 µM
  TGI: > 100 µM
COLO 205 colon
  GI50: > 100 µM
  TGI: > 100 µM
RPMI-8226 leukemia
  GI50: > 100 µM
  TGI: > 100 µM
SF-295 CNS
  GI50: > 100 µM
  TGI: > 100 µM
DU-145 prostate
  GI50: > 100 µM
  TGI: > 100 µM
U251 CNS
  GI50: > 100 µM
  TGI: > 100 µM
MDA-MB-231 breast
  GI50: 40.3 µM
  TGI: > 100 µM
786-0 renal
  GI50: > 100 µM
  TGI: > 100 µM
MCF7 breast
  GI50: > 100 µM
  TGI: > 100 µM
UACC-257 melanoma
  GI50: 39.4 µM
  TGI: > 100 µM
HOP-62 NSCLC
  GI50: 65.3 µM
  TGI: > 100 µM
HT29 colon
  GI50: > 100 µM
  TGI: > 100 µM
LOX IMVI melanoma
  GI50: > 100 µM
  TGI: > 100 µM

— PubChem BioAssay (NCI)
